One data set addresses ABCB1 (Homo sapiens, UniProt P08183). In words: JC-1 efflux inhibition dose response, flow cytometry, Jurkat-DNR cells. The settings on record: Jurkat-DNR cells over-expressing ABCB1, averages of two to four replicates. The protocol: (§1) The HyperCyt® high throughput flow cytometry platform (IntelliCyt™, Albuquerque, N. Mex.) was used to sequentially sample cells from 384-well microplates (2 μL/sample) for flow cytometer presentation at a rate of 40 samples per minute.^62-63 Flow cytometric analysis was performed on a CyAn™ flow cytometer (Beckman-Coulter, Fullerton, Calif.). The resulting time-gated data files were analyzed with HyperView® software to determine compound activity in each well. Inhibition response curves were fitted by Prism® software (GraphPad Software, Inc., San Diego, Calif.) using nonlinear least-squares regression in a sigmoidal dose response model with variable slope, also known as the four-parameter logistic equation. This type of time-gated flow cytometric data analysis was described in detail for a previous ABC transporter screen from our group.^56
The assay provider's ABCB1 over-expressing Jurkat-DNR cell line is used for confirmatory follow up instead of the CCRF-Adr cells. Each cell line (Jurkat-DNR and Ig-MXP3) is run separately against all compounds (no differential cell staining) in dose response. The assay is conducted in 384-well format in a total volume of 15.1 μL. Cells and reagents are added sequentially as follows: 1) PBS buffer (5 μL/well); 2) test compound (100 nL/well); 3) drug-resistant cells (10 μL/well) pre-stained with the JC-1 substrate at 1 μM. Final in-well concentrations of test compound range from 50 μM to 69 nM over an 18 point dose response and the cell concentration is 1×10^6 cells/mL. Nicardipine (50 μM) is added to each plate as a pan-inhibition positive control. The plate is rotated end-over-end at 4 RPM and 25° C. for 30 minutes and then cell samples are analyzed and flow cytometric data of light scatter and fluorescence emission at 530+/−20 nm (488 nm excitation, FL1) are collected.
Each cell line (Jurkat-DNR and Ig-MXP3) was run separately against all compounds (no differential cell staining) in dose-response. The protocol differed from the single point screen as describe here. Cells and reagents were added sequentially as follows: 1) PBS buffer (5 μL per well); 2) test compound (100 nL per well); 3) drug-resistant cells (10 μL, per well) pre-exposed to the JC-1 substrate at 1 μM just prior to the well addition. Final in-well concentrations of test compound ranged from 50 μM to 69 nM over an 18 point dose-response and the cell concentration was 1×10^6 cells mL^−1.
A general note: Flow cytometry measures light scatter and fluorescence of single cells or particles in a stream.

For another data set, the target named is T1, ABCG2 (Homo sapiens, UniProt Q9UNQ0).
T1 sequence (Q9UNQ0 1-655): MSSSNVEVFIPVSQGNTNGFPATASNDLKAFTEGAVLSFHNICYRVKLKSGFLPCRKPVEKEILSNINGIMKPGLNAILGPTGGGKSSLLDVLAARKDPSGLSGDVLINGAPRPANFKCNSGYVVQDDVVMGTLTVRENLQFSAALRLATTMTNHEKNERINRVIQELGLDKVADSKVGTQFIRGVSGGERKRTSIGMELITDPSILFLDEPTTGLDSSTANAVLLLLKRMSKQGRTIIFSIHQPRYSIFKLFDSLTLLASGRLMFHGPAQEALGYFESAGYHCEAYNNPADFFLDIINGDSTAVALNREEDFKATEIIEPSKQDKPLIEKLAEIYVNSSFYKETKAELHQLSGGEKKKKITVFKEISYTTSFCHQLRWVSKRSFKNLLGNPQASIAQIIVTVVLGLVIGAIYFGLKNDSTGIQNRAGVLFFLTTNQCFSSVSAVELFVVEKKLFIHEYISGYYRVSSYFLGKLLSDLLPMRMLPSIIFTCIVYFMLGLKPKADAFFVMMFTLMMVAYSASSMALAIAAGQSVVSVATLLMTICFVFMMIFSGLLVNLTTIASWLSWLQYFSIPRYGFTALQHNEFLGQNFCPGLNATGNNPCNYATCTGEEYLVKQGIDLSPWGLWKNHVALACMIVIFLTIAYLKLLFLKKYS
In words: JC-1 efflux inhibition dose response, flow cytometry, Ig-MXP3 cells. Conditions: for ~Fold G2 Selective (B1/G2): quotient of average ABCB1 IC50 and average ABCG2 IC50, efflux assay. The procedure: as §1
(§2) The assay provider's ABCB1 over-expressing Jurkat-DNR cell line is used for confirmatory follow up instead of the CCRF-Adr cells. Each cell line (Jurkat-DNR and Ig-MXP3) is run separately against all compounds (no differential cell staining) in dose response. The assay is conducted in 384-well format in a total volume of 15.1 μL. Cells and reagents are added sequentially as follows: 1) PBS buffer (5 μL/well); 2) test compound (100 nL/well); 3) drug-resistant cells (10 μL/well) pre-stained with the JC-1 substrate at 1 μM. […] Nicardipine (50 μM) is added to each plate as a pan-inhibition positive control.
(§3) Each cell line (Jurkat-DNR and Ig-MXP3) was run separately against all compounds (no differential cell staining) in dose-response. The protocol differed from the single point screen as describe here. Cells and reagents were added sequentially as follows: 1) PBS buffer (5 μL per well); 2) test compound (100 nL per well); 3) drug-resistant cells (10 μL, per well) pre-exposed to the JC-1 substrate at 1 μM just prior to the well addition.

Data set [1] relates to ABCB1 over-expressing Jurkat-DNR cells. The experiment in a line: Chemoreversal assay: potentiation of daunorubicin (DNR) killing. Format: cell-based. The settings on record: constant 100 nM DNR, varied inhibitor dose.
Data set [2] has as its system ABCG2 over-expressing Ig-MXP3 cells. In words: Chemoreversal assay: potentiation of mitoxantrone (MTX) killing. Format: cell-based. The settings on record: Ig-MXP3 cells, constant 30 nM MTX, varied inhibitor dose, read-out: CR50 ABCG2.
The subject of another data set is Jurkat-DNR cells. In words: Direct cytotoxicity (Toxic Dose 50) without chemotherapeutic. The protocol: Cells (ABCB1, Jurkat-DNR or ABCG2 Ig-MXP3) are incubated with the test compound (3 order of magnitude concentration range) over a 3-day and 7-day period in the presence of the inhibitor and chemotherapeutic (ABCB1, DNR or ABCG2 MTX), such that a cell concentration of at least 1×10^5 cells/mL is maintained. Cell viability is determined by trypan blue staining and enumeration under light microscopy. […] A chemoreversal index (Chemoreversal 50, CR50) is determined from the viability assessment. Using a similar approach, a direct cytotoxicity index (Toxic Dose 50, TD50) is determined by assessment of cell death of cells grown in media alone.
Cells (ABCB1, Jurkat-DNR or ABCG2 Ig-MXP3) were incubated with the test compound in a 3 order of magnitude concentration range over three and seven day periods in the presence of the inhibitor and chemotherapeutic (ABCB1, 100 nM DNR or ABCG2 30 nM MTX), such that a cell concentration of at least 1×10^5 cells mL^−1 was maintained. Cell viability was determined by trypan blue staining and enumeration under light microscopy. […] A chemoreversal index (Chemoreversal 50, CR50) was determined from the viability assessment. Using a similar approach, a direct cytotoxicity index (Toxic Dose 50, TD50) was determined by assessment of cell death of cells grown in media alone.

Another data set has as its system Ig-MXP3 cells. Described as above. The format is cell-based.
Another data set deals with T2, ABCB1 / ABCG2 (Homo sapiens, UniProt Q9UNQ0).
T2 sequence (Q9UNQ0 1-655): T1 sequence (Q9UNQ0 1-655)
The experiment in a line: JC-1 efflux inhibition dose response, flow cytometry, Ig-MXP3 cells. The settings on record: human, probe JC-1 (1 µM), ~Fold G2 Selective (B1/G2), quotient of average ABCB1 IC50 and average ABCG2 IC50, efflux assay. The procedure: as §1, §2, §3

[3] abbreviates: Jurkat-DNR cells, inhibitor without chemotherapeutic.
[4] abbreviates: Ig-MXP3 cells, inhibitor without chemotherapeutic.
[5] abbreviates: read-out: IC50 ABCB1 (efflux inhibition of JC-1 substrate).
[6] abbreviates: read-out: IC50 ABCG2 (efflux inhibition of JC-1 substrate), Ig-MXP3 cells over-expressing ABCG2, averages of two to four replicates.
Setting [7] is: IC50 ABCB1 (efflux inhibition of JC-1 substrate).

“And” between values parts separate entries of the source, which are not always exact repeats. Equal entries are not always repeated. Where two headings read alike, the source gives them in different places. A value given as a limit tells only on which side of the number the result lay.

ABCB1, sequence (P08183 whole entry): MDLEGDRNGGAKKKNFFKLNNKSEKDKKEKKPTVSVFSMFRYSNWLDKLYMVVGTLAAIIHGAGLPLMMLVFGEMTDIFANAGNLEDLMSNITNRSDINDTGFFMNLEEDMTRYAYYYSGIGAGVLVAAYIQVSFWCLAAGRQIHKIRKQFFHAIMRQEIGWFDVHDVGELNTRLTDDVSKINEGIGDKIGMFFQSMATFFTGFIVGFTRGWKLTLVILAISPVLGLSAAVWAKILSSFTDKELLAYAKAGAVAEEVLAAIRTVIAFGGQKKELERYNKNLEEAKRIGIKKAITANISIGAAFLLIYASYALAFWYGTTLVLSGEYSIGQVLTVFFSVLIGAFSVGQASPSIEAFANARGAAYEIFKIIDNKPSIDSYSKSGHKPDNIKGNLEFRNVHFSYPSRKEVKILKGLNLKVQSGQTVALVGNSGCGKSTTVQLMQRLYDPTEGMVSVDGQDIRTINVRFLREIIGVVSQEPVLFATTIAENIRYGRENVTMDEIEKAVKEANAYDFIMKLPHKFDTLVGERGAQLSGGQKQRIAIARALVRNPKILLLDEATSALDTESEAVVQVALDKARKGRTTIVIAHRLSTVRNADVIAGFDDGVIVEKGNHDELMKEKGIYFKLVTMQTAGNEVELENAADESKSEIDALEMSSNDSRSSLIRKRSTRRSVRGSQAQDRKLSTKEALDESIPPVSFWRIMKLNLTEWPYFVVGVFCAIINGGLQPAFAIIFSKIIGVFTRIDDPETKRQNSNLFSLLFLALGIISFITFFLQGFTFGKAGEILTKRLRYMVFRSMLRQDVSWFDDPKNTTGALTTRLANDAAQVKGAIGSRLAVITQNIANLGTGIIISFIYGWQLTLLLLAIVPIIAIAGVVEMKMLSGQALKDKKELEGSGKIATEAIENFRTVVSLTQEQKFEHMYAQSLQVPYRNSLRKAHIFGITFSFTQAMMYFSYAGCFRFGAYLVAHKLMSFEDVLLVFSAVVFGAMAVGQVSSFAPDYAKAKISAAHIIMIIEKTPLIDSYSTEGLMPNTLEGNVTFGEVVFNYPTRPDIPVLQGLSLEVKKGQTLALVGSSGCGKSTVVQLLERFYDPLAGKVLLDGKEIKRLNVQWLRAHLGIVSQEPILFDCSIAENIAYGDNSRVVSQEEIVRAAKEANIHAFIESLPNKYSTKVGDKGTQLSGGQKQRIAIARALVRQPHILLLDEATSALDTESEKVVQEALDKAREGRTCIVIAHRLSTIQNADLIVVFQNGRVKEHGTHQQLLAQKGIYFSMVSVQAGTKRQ

Take `O=C(NCCCN1CCOCC1)c1cnn2c(-c3ccccc3)cc(-c3ccccc3)nc12` [Compound 6, reference compound]: the IC50 (commonly the concentration at which inhibition is half-maximal) at ABCB1 (read-out: IC50 ABCB1 (efflux inhibition of JC-1 substrate), listed as reversan) was 4400 nM and 4410 nM; at ABCG2 (read-out: IC50 ABCG2 (efflux inhibition of JC-1 substrate), Ig-MXP3 cells over-expressing ABCG2, averages of two to four replicates, listed as reversan), 800 nM and 840 nM. Moreover, the EC50 in data set [1] (listed as reversan, read-out: CR50 ABCB1) was 2200 nM; in data set [1] (read-out: CR50 ABCB1), 220 nM; in data set [2] (listed as reversan), 3600 nM; in data set [2], 3610 nM. Further, in the data set with Jurkat-DNR cells, the “TD50 ABCB1” value came to 7.04 µM. In the data set on Ig-MXP3 cells, the “TD50 ABCG2” value is over 100 µM.

With `COc1ccc2c3c([nH]c2c1)[C@H](CC(C)C)N1C(=O)[C@H](CCC(=O)OC(C)(C)C)NC(=O)[C@@H]1C3` [Compound 4, reference compound], the “TD50 ABCB1” value in the data set with Jurkat-DNR cells (setting [3]) is 2.84 µM. Also, the “TD50 ABCG2” value with Ig-MXP3 cells (setting [4]) was 20.00 µM.

`O=C(c1ccco1)N1CCN(c2cc(-c3ccccc3)nc3cc(-c4cccc(Cl)c4)nn23)CC1` [Compound 8]: the half-inhibitory concentration (IC50) came to 6180 nM on ABCB1 (setting [5]) and 960 nM at ABCG2 (setting [6]). The “~Fold G2 Selective (B1/G2)” value at ABCG2 is 6.4 fold. The EC50 came out at 700 nM in data set [1] (listed as SID 85240370, read-out: CR50 ABCB1); 250 nM in data set [1] (read-out: CR50 ABCB1); 140 nM in data set [2].

With `Cc1nc2cc(-c3cccc(Cl)c3)nn2c(N2CCN(C(=O)c3ccco3)CC2)c1C` [Compound 9], the IC50 against ABCB1 (setting [7]) is 8400 ± 700 nM; at ABCG2 it was 2650 ± 1070 nM. The selectivity ratio at 30 min on ABCB1 / ABCG2 stood at 3.2. Besides, the EC50 in data set [2] is 170 nM. Also, in the data set on Jurkat-DNR cells (setting [3]), the “TD50 ABCB1” value is over 100 µM. In the data set on Ig-MXP3 cells (setting [4]), the “TD50 ABCG2” value is 47.40 µM.

Turning to `COc1cccc(-c2cc3nc(-c4ccco4)cc(N4CCN(C(=O)c5ccoc5)CC4)n3n2)c1` [Compound 56], the figures for the IC50 at ABCB1 (setting [5]) and on ABCG2 (setting [6]) were 7400 nM and 2260 nM, respectively. The “~Fold G2 Selective (B1/G2)” value on ABCG2 was determined as 3.3 fold. The EC50 amounted to 470 nM in data set [1] (read-out: CR50 ABCB1) and 1000 nM in data set [2]. Besides, the “TD50 ABCB1” value in the data set with Jurkat-DNR cells turned out to be 5.52 µM. Also, the “TD50 ABCG2” value in the data set on Ig-MXP3 cells is over 100 µM.

For `O=C1CN(c2cc(-c3ccco3)nc3cc(-c4ccccc4)nn23)CCN1c1ccccc1` [Compound 83], the IC50 was found to be 4060 ± 1780 nM at ABCB1 (setting [7]) and 1640 ± 520 nM at ABCG2. At ABCB1 / ABCG2, the selectivity ratio at 30 min turned out to be 2.5.

With `O=C(c1ccoc1)N1CCN(c2cc(-c3ccccc3)nc3cc(-c4ccc(Br)cc4)nn23)CC1` [Compound 33], the IC50 at ABCB1 (setting [7]) came to 1310 ± 350 nM; against ABCG2, 760 ± 430 nM. The selectivity ratio at 30 min at ABCB1 / ABCG2 was found to be 1.7.

As to `c1ccc(CN2CCN(c3cc(-c4ccco4)nc4cc(-c5ccccc5)nn34)CC2)cc1` [Compound 75], the IC50 against ABCB1 (setting [7]) was determined as 8990 ± 3670 nM; at ABCG2, 3070 ± 1880 nM. Also, the selectivity ratio at 30 min at ABCB1 / ABCG2 was determined as 2.9.

`CN(CCCN(C)c1cc(-c2ccco2)nc2cc(-c3ccccc3)nn12)C(=O)c1ccoc1` [Compound 81]: the IC50 against ABCB1 (setting [7]) was 13100 ± 6270 nM; against ABCG2, 5430 ± 4110 nM. Moreover, the selectivity ratio at 30 min on ABCB1 / ABCG2 was 2.4.

On to `O=C(c1ccoc1)N1CCN(c2cc(-c3cccs3)nc3cc(-c4ccccc4)nn23)CC1` [Compound 64], for which the 50% inhibitory concentration (IC50) came to 3460 nM at ABCB1 (setting [7]) and 1640 ± 30 nM against ABCG2. The selectivity ratio at 30 min at ABCB1 / ABCG2 was found to be 2.1.

Turning to `c1ccc(-c2cc3nc(-c4ccco4)cc(N4CCNCC4)n3n2)cc1` [Compound 77], the IC50 against ABCB1 (setting [7]) is 23600 ± 12100 nM; against ABCG2, 5710 ± 1800 nM. Further, on ABCB1 / ABCG2, the selectivity ratio at 30 min was 4.1.

For `CN(C)c1cc(-c2ccco2)nc2cc(-c3ccccc3)nn12` [Compound 82], the IC50 against ABCB1 (setting [7]) was found to be 27700 ± 14500 nM; at ABCG2 it was 7680 ± 1690 nM. Further, at ABCB1 / ABCG2, the selectivity ratio at 30 min was 3.6.

Turning to `O=C(c1ccccc1Cl)N1CCN(c2cc(-c3ccccc3)nc3cc(-c4cccc(Cl)c4)nn23)CC1` [Compound 17], the IC50 against ABCB1 (setting [7]) worked out at 1850 ± 750 nM; against ABCG2, 1310 ± 230 nM. Moreover, on ABCB1 / ABCG2, the selectivity ratio at 30 min came to 1.4.

For the origin of these results see US9056111B1, “Selective efflux inhibitors and related pharmaceutical compositions and methods of treatment” (STC.UNM, priority 2011, dated 2015).
